Like-named read-outs stand apart in the source and are kept apart here.
Assays:
[1] = target: T1, human recombinant Monoacylglycerol Lipase (Homo sapiens, UniProt Q99685); assay: MAGL enzymatic assay (IC50; 7-HCA substrate added at T=0 min or T=30 min); type: biochemical; conditions: geometric mean of 2-5 determinations unless otherwise indicated
T1 sequence (Q99685 1-303): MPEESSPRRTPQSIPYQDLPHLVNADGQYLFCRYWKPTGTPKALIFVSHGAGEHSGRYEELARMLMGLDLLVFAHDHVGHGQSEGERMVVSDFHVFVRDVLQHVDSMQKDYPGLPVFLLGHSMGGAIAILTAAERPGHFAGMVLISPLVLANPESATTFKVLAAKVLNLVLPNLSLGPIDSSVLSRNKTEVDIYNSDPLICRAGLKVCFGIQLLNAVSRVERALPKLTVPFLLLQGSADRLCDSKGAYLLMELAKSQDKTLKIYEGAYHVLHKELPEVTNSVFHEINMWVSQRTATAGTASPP

[2] = target: T1, human recombinant Monoacylglycerol Lipase; assay: MAGL inactivation (kinact/KI from enzyme progress curves, T=0 min protocol); conditions: from plot of Kobs vs. compound concentration, geometric mean of 2-5 determinations (b: ≥6)
[3] = MAGL (T = 30 min) IC50, substrate 7-HCA added after 30 minute incubation (T=30 min)
[4] = substrate 7-HCA added immediately (T=0 min), read-out: MAGL (T = 0 min) IC50

Q: Which results are given for O=C(O[C@H](CO)C(F)(F)F)N1CCC2(CC1)CC(c1ccnc(C(F)(F)F)c1)C2 [Example 68, (2R)-1,1,1-trifluoro-3-hydroxypropan-2-yl 2-[2-(trifluoromethyl)pyridin-4-yl]-7-azaspiro[3.5]nonane-7-carboxylate]?
A: IC50 [1, 3]: 0.9 nM; IC50 [1, 4]: 9 nM; MAGL kinact/KI [2]: 88300 1/s per M

Q: How did the IC50 [1, 3] turn out when O=C(O[C@H](CO)C(F)(F)F)N1CCC2(CC1)CC(c1cccc(C(F)(F)F)n1)C2 [Example 76, (2R)-1,1,1-trifluoro-3-hydroxypropan-2-yl 2-[6-(trifluoromethyl)pyridin-2-yl]-7-azaspiro[3.5]nonane-7-carboxylate] was run?
A: The IC50 was 0.2 nM.

Q: And the IC50 [1, 4]?
A: The IC50 was 2 nM.

Q: What about the “MAGL kinact/KI” value [2] of the same molecule?
A: Its value is 206000 1/s per M.

Q: What does the source list for O=C(O[C@H](CO)C(F)(F)F)N1CCC2(CC1)CC(c1cccc(C(F)F)n1)C2 [Example 77, (2R)-1,1,1-trifluoro-3-hydroxypropan-2-yl 2-[6-(difluoromethyl)pyridin-2-yl]-7-azaspiro[3.5]nonane-7-carboxylate]?
A: IC50 [1, 3]: 0.6 nM; IC50 [1, 4]: 4 nM; MAGL kinact/KI [2]: 82100 1/s per M

Q: Which IC50 [1, 3] does the source give for O=C(O[C@H](CO)C(F)(F)F)N1CCC2(CC1)CC(c1cc(C(F)F)ccn1)C2 [Example 78, (2R)-1,1,1-trifluoro-3-hydroxypropan-2-yl 2-[4-(difluoromethyl)pyridin-2-yl]-7-azaspiro[3.5]nonane-7-carboxylate] here?
A: The IC50 was 1 nM.

Q: And the IC50 [1, 4]?
A: The IC50 was 9 nM.

Q: And the “MAGL kinact/KI” value [2]?
A: Its value is 75400 1/s per M.

Q: O=C(O[C@H](CO)C(F)(F)F)N1CCC2(CC1)CC(c1ccc(C(F)(F)F)cn1)C2 [Example 79, (2R)-1,1,1-trifluoro-3-hydroxypropan-2-yl 2-[5-(trifluoromethyl)pyridin-2-yl]-7-azaspiro[3.5]nonane-7-carboxylate] was tested. Which IC50 [1, 3] did it give?
A: Its IC50 is 1 nM.

Q: And the IC50 [1, 4]?
A: Its IC50 is 8 nM.

Q: What about the “MAGL kinact/KI” value [2] of the same molecule?
A: The value was 63500 1/s per M.

Q: For O=C(O[C@H](CO)C(F)(F)F)N1CCC2(CC1)CC(c1ccnc(C(F)F)c1)C2 [Example 80, (2R)-1,1,1-trifluoro-3-hydroxypropan-2-yl 2-[2-(difluoromethyl)pyridin-4-yl]-7-azaspiro[3.5]nonane-7-carboxylate], which IC50 [1, 3] is on record?
A: The IC50 was 1 nM.

Q: And the IC50 [1, 4]?
A: Its IC50 is 13 nM.

Q: And the “MAGL kinact/KI” value [2]?
A: The value was 46200 1/s per M.

Q: What does the source list for O=C(O[C@H](CO)C(F)(F)F)N1CCC2(CC1)CC(c1ccccn1)C2 [Example 81, (2R)-1,1,1-trifluoro-3-hydroxypropan-2-yl 2-(pyridin-2-yl)-7-azaspiro[3.5]nonane-7-carboxylate]?
A: IC50 [1, 3]: 4 nM; IC50 [1, 4]: 45 nM; MAGL kinact/KI [2]: 20400 1/s per M

Q: O=C(O[C@H](CO)C(F)(F)F)N1CCC2(CC1)CC(c1ccc(C(F)F)nc1)C2 [Example 82, (2R)-1,1,1-trifluoro-3-hydroxypropan-2-yl 2-[6-(difluoromethyl)pyridin-3-yl]-7-azaspiro[3.5]nonane-7-carboxylate] was tested. Which IC50 [1, 3] did it give?
A: The IC50 was 2 nM.

Q: What about the IC50 [1, 4] of the same molecule?
A: The IC50 was 24 nM.

Q: What about the “MAGL kinact/KI” value [2] of the same molecule?
A: The value was 19300 1/s per M.

Q: Which IC50 [1, 3] does the source give for O=C(O[C@H](CO)C(F)(F)F)N1CCC2(CC1)CC(c1cc(C(F)(F)F)ccn1)C2 [Example 83, (2R)-1,1,1-trifluoro-3-hydroxypropan-2-yl 2-[4-(trifluoromethyl)pyridin-2-yl]-7-azaspiro[3.5]nonane-7-carboxylate] here?
A: The IC50 was 0.6 nM.

Q: What about the IC50 [1, 4] of the same molecule?
A: Its IC50 is 5 nM.

Q: And the “MAGL kinact/KI” value [2]?
A: The value was 156000 1/s per M.

Q: For N#Cc1ccc(C2CC3(CCN(C(=O)O[C@H](CO)C(F)(F)F)CC3)C2)nc1 [Example 84, (2R)-1,1,1-trifluoro-3-hydroxypropan-2-yl 2-(5-cyanopyridin-2-yl)-7-azaspiro[3.5]nonane-7-carboxylate], which IC50 [1, 3] is on record?
A: The IC50 was 15 nM.

Q: And the IC50 [1, 4]?
A: Its IC50 is 143 nM.

Q: And the “MAGL kinact/KI” value [2]?
A: Its value is 4000 1/s per M.

Q: How did the IC50 [1, 3] turn out when O=C(O[C@H](CO)C(F)(F)F)N1CCC2(CC1)CC(Oc1ccc(C(F)F)cn1)C2 [Example 85, (2R)-1,1,1-trifluoro-3-hydroxypropan-2-yl 2-{[5-(difluoromethyl)pyridin-2-yl]oxy}-7-azaspiro[3.5]nonane-7-carboxylate] was run?
A: The IC50 was 0.6 nM.

Q: What about the IC50 [1, 4] of the same molecule?
A: Its IC50 is 4 nM.

Q: And the “MAGL kinact/KI” value [2]?
A: Its value is 42100 1/s per M.

Q: Which IC50 [1, 3] does the source give for N#Cc1cccc(OC2CC3(CCN(C(=O)O[C@H](CO)C(F)(F)F)CC3)C2)c1 [Example 86, (2R)-1,1,1-trifluoro-3-hydroxypropan-2-yl 2-(3-cyanophenoxy)-7-azaspiro[3.5]nonane-7-carboxylate] here?
A: Its IC50 is 0.7 nM.

Q: What about the IC50 [1, 4] of the same molecule?
A: Its IC50 is 9 nM.

Q: And the “MAGL kinact/KI” value [2]?
A: The value was 50100 1/s per M.

Q: For O=C(O[C@H](CO)C(F)(F)F)N1CCC2(CC1)CC(Oc1ccccn1)C2 [Example 87, (2R)-1,1,1-trifluoro-3-hydroxypropan-2-yl 2-(pyridin-2-yloxy)-7-azaspiro[3.5]nonane-7-carboxylate], which IC50 [1, 3] is on record?
A: Its IC50 is 2 nM.

Q: What about the IC50 [1, 4] of the same molecule?
A: Its IC50 is 26 nM.

Q: What about the “MAGL kinact/KI” value [2] of the same molecule?
A: The value was 32600 1/s per M.

Q: Which results are given for O=C(O[C@H](CO)C(F)(F)F)N1CCC2(CC1)CC(Oc1ccc(F)cn1)C2 [Example 88, (2R)-1,1,1-trifluoro-3-hydroxypropan-2-yl 2-[(5-fluoropyridin-2-yl)oxy]-7-azaspiro[3.5]nonane-7-carboxylate]?
A: IC50 [1, 3]: 1 nM; IC50 [1, 4]: 16 nM; MAGL kinact/KI [2]: 33000 1/s per M

Q: With O=C(O[C@H](CO)C(F)(F)F)N1CCC2(CC1)CC(Oc1cc(C(F)F)ccn1)C2 [Example 89, (2R)-1,1,1-trifluoro-3-hydroxypropan-2-yl 2-{[4-(difluoromethyl)pyridin-2-yl]oxy}-7-azaspiro[3.5]nonane-7-carboxylate] as the molecule, how does the IC50 [1, 3] read?
A: The IC50 was 0.8 nM.

Q: What about the IC50 [1, 4] of the same molecule?
A: Its IC50 is 8 nM.

Q: And the “MAGL kinact/KI” value [2]?
A: Its value is 31900 1/s per M.

Q: For O=C(O[C@H](CO)C(F)(F)F)N1CCC2(CC1)CC(Oc1cccc(C(F)F)n1)C2 [Example 90, (2R)-1,1,1-trifluoro-3-hydroxypropan-2-yl 2-{[6-(difluoromethyl)pyridin-2-yl]oxy}-7-azaspiro[3.5]nonane-7-carboxylate], which IC50 [1, 3] is on record?
A: The IC50 was 0.5 nM.

Q: What about the IC50 [1, 4] of the same molecule?
A: The IC50 was 9 nM.

Q: What about the “MAGL kinact/KI” value [2] of the same molecule?
A: Its value is 71700 1/s per M.
